From patent publication US7163941B2, “Pyrido[2,3-d]pyrimidin-7-carboxylic acid derivatives, their manufacture and use as pharmaceutical agents” (Hoffmann-La Roche Inc., priority 2003, dated 2007)

Legend:
[1] = biological target: T1, Src (p60^c-src, partially purified) (Homo sapiens, UniProt P12931); assay: SRC-Inhibitor-Assay (time-resolved fluorescence), Src enzyme; type: biochemical; conditions: ATP 5 μM, peptide 10 μM, enzyme 2.5 U/ml, pre-incubation 15 min at 15° C.
T1 construct: purchased Upstate (UBI)
Experimental: (§1) The activity of the compounds according to this invention as inhibitors for the src-family tyrosine kinases was shown by using the following assay.
(§2) SRC-Inhibitor-Assay Parameters:
(§3) • Reaction mixture: • ATP 5 μM • Peptide (R+Ja133-Ro): 10 μM • Ja133-Ro 196 nM • Ro 9.8 μM • PT66 230 ng/ml • Assay buffer: 4 mM MgCl2 • 2 mM TCEP • 50 mM HEPES • 0,1% Tween 20 • pH 7.3 • Enzyme: 2.5 U/ml • Inhibitor: max. 25 μM • min. 0.42 nM Material: • Eu-labelled phosphotyrosine antibody: -for Lck Cisbio Mab PT66-K, • for Src EG&G Wallac PT66 Eu-W1024 (all commercially available). • Peptides: Ro: NH2-A-E-E-E-I-Y-G-E-F-E-A-K-K-K-K-CONH2 (SEQ ID NO: 1), and • Ja133-Ro: Ja133-G-Aminocaprylic acid-A-E-E-E-I-Y-G-E-F-E-A-K-K-K-K-CONH2 (SEQ ID NO: 2), wherein Ja133 is LightCycler-Red 640-N-hydroxy succinimide ester; • whereby both peptides were synthesized by an optimized solid phase peptide synthesis protocol (Merrifield, Fed. Proc. Fed. Amer. Soc. Exp. Biol. 21 (1962) 412) on a Zinsser SMP350 peptide synthesizer. Shortly, the peptide was assembled on 160 mg (22.8 μmol scale) of a Rink-Linker modified polystyrene solid phase by repeatedly conjugating an twenty fold excess of aminoacids each protected by temporary piperidine labile Fmoc- and permanent acid labile tert-Bu-, BOC- and Otert-Bu-groups depending on the side chain function. The substrate sequence AEEEIYGEFEAKKKK (SEQ ID NO: 1) was N-terminal additionally mounted with the spacer amino acids Aminocaprylic acid and Glycin. After cleavage of the N-terminal temporary protecting group the still attached and protected peptide was labeled with a 1.5 fold amount of LightCycler-Red 640-N-hydroxy succinimide ester (purchased by Roche Diagnostics GmbH) and triethylamine. After 3 hrs. the resin was washed with Dimethylformamide and Isopropanol until the eluates of the blue resin got colo-rless. […] The substrate was finally isolated by a preparative reverse phase HPLC purification. The purification yielded 12.2 mg RP-HPLC single peak pure blue material (lyophilisate). The identity was proven by MALDI mass spectroscopy [2720.0]. • Enzymes: Upstate Lck (p56^lck, active), Upstate Src (p60^c-src, partially purified) were purchased from UBI. • Time-resolved Fluorescence Assay: Reader: Perkin Elmer, Wallac Viktor 1420-040 multilabel counter; Liquid handling system: Beckman Coulter, Biomek 2000. ATP, Tween 20, HEPES were purchased from Roche Molecular Biochemicals, MgCl2 and MnCl2 were purchased from Merck Eurolab, TCEP was purchased from Pierce, 384 Well low volume fluorescence plates was purchased from Falcon. Assay Description:
(§4) At first the enzyme is pre-incubated for 15 min. at 15° C. in aqueous solution with corresponding amounts of inhibitors according to this invention. Then the phosphorylation reaction is started by adding a reaction mixture, containing ATP, Peptide and PT66, and subsequent shaking. The proceeding of this reaction is immediately monitored using time resolved fluorescence spectroscopy in a suitable well plate reader.
(§5) The IC50-values can be obtained from the reaction rates by using a non-linear curve fit (Excelfit).

Lck (p56^lck, active) = biological target: T2, Lck (p56^lck, active) (Homo sapiens, UniProt P06239); assay: SRC-Inhibitor-Assay (time-resolved fluorescence), Lck enzyme; type: biochemical; conditions: ATP 5 μM, peptide 10 μM, enzyme 2.5 U/ml, pre-incubation 15 min at 15° C.
T2 construct: purchased Upstate (UBI)
Experimental: as §1, §2, §3, §4, §5

T2 sequence (P06239 whole entry, species assumed): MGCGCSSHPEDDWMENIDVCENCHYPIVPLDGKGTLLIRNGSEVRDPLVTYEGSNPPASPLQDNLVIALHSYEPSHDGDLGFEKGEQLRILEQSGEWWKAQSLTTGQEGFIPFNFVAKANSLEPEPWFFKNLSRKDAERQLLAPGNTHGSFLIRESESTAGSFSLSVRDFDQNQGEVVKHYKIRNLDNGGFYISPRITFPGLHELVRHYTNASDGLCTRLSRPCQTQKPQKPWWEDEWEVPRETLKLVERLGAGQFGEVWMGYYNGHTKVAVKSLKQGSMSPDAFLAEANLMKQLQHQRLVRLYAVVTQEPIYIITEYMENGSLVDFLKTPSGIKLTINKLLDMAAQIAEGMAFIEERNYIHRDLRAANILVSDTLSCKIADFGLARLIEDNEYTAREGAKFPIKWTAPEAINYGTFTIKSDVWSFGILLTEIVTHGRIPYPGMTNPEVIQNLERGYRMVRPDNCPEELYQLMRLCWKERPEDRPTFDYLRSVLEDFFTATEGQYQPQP
T1 sequence (P12931 whole entry, species assumed): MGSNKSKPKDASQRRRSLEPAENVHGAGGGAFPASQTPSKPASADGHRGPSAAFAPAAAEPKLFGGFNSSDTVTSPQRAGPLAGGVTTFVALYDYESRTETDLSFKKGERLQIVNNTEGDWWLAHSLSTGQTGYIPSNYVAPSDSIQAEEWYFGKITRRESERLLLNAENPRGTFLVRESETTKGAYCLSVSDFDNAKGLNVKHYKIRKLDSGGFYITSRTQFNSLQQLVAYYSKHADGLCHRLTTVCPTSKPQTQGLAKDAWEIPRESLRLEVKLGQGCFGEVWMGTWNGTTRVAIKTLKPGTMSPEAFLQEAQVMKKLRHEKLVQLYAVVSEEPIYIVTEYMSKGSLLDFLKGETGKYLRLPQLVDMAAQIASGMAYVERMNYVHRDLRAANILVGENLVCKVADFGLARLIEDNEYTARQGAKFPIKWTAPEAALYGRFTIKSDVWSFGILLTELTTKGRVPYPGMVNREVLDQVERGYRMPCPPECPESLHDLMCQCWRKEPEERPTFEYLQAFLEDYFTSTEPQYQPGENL

**Q.** How did the IC50 [1] turn out when `CC(=O)NCCNC(=O)c1nc2nc(Nc3ccc(F)cc3)ncc2cc1-c1ccccc1Br` [Example 3-16, 6-(2-Bromo-phenyl)-2-(4-fluoro-phenylamino)-pyrido[2,3-d]pyrimidine-7-carboxylic acid (2-acetylamino-ethyl)-amide] was run?
**A.** 81.4 nM

**Q.** What about the IC50 (Lck (p56^lck, active)) of the same compound?
**A.** 189 nM

**Q.** With `CS(=O)(=O)c1cccc(Nc2ncc3cc(-c4ccccc4Br)c(C#N)nc3n2)c1` [Example 2, 6-(2-Bromo-phenyl)-2-(3-methanesulfonyl-phenylamino)-pyrido[2,3-d]pyrimidine-7-carbonitrile] as the compound, how does the IC50 [1] read?
**A.** 33 nM

**Q.** What about the IC50 (Lck (p56^lck, active)) of the same compound?
**A.** 159 nM

**Q.** What does the source list for `O=C(N[C@H]1CCNC1)c1nc2nc(Nc3ccc(F)cc3)ncc2cc1-c1ccccc1Br` [Example 3-28, (S)-6-(2-Bromo-phenyl)-2-(4-fluoro-phenylamino)-pyrido[2,3-d]pyrimidine-7-carboxylic acid pyrrolidin-3-ylamide]?
**A.** IC50 [1]: 19.3 nM; IC50 (Lck (p56^lck, active)): 62.7 nM

**Q.** Which IC50 [1] does the source give for `CS(=O)(=O)NCCNC(=O)c1nc2nc(Nc3ccc4c(c3)S(=O)(=O)CCO4)ncc2cc1-c1ccccc1Br` [Example 7-22, 6-(2-bromo-phenyl)-2-(4,4-dioxo-3,4-dihydro-2H-4lambda*6*-benzo[1,4]oxathiin-6-ylamino)-pyrido[2,3-d]pyrimidine-7-carboxylic acid (2-methanesulfonylamino-ethyl)-amide] here?
**A.** 5 nM

**Q.** And the IC50 (Lck (p56^lck, active))?
**A.** 37 nM

**Q.** How did the IC50 [1] turn out when `CC(CNC(=O)c1nc2nc(Nc3ccc(F)cc3)ncc2cc1-c1ccccc1Br)N(C)C` (centres unmarked) [Example 3-27, 6-(2-Bromo-phenyl)-2-(4-fluoro-phenylamino)-pyrido[2,3-d]pyrimidine-7-carboxylic acid (2-dimethylamino-propyl)-amide] was run?
**A.** 23.9 nM

**Q.** And the IC50 (Lck (p56^lck, active))?
**A.** 129 nM

**Q.** With `C[S+]([O-])c1cccc(Nc2ncc3cc(-c4ccccc4Br)c(C#N)nc3n2)c1` (centres unmarked) [Example 4-5, 6-(2-Bromo-phenyl)-2-(3-methanesulfinyl-phenylamino)-pyrido[2,3-d]pyrimidine-7-carbonitrile] as the compound, how does the IC50 [1] read?
**A.** 3.5 nM

**Q.** What about the IC50 (Lck (p56^lck, active)) of the same compound?
**A.** 52.1 nM

**Q.** Which results are given for `C[S+]([O-])CCNC(=O)c1nc2nc(Nc3ccc(F)cc3)ncc2cc1-c1ccccc1Br` (centres unmarked) [Example 3-40, 6-(2-Bromo-phenyl)-2-(4-fluoro-phenylamino)-pyrido[2,3-d]pyrimidine-7-carboxylic acid (2-methanesulfinyl-ethyl)-amide]?
**A.** IC50 [1]: 149 nM; IC50 (Lck (p56^lck, active)): 584 nM

**Q.** `CN(C)CCNC(=O)c1nc2nc(Nc3ccc(N4CCOCC4)cc3)ncc2cc1-c1ccccc1Br` [Example 3-9, 6-(2-Bromo-phenyl)-2-(4-morpholin-4-yl-phenylamino)-pyrido[2,3-d]pyrimidine-7-carboxylic acid (2-dimethylamino-ethyl)-amide] was tested. Which IC50 [1] did it give?
**A.** 0.9 nM

**Q.** What about the IC50 (Lck (p56^lck, active)) of the same compound?
**A.** 12.1 nM

**Q.** With `NC(=O)c1c[nH]nc1NC(=O)c1nc2nc(Nc3ccc(F)cc3)ncc2cc1-c1ccccc1Br` [Example 3-42, 6-(2-Bromo-phenyl)-2-(4-fluoro-phenylamino)-pyrido[2,3-d]pyrimidine-7-carboxylic acid (4-carbamoyl-1H-pyrazol-3-yl)-amide] as the compound, how does the IC50 [1] read?
**A.** 56.3 nM

**Q.** What about the IC50 (Lck (p56^lck, active)) of the same compound?
**A.** 694 nM

**Q.** How did the IC50 [1] turn out when `N#Cc1nc2nc(Nc3ccc(OCCO)cc3)ncc2cc1-c1ccccc1Br` [Example 4-3, 6-(2-Bromo-phenyl)-2-[4-(2-hydroxy-ethoxy)-phenylamino]-pyrido[2,3-d]pyrimidine-7-carbonitrile] was run?
**A.** 4.5 nM

**Q.** What about the IC50 (Lck (p56^lck, active)) of the same compound?
**A.** 49.9 nM

**Q.** How did the IC50 [1] turn out when `N#Cc1nc2nc(Nc3ccc(N4CCOCC4)cc3)ncc2cc1-c1ccccc1Br` [Example 4-1, 6-(2-Bromo-phenyl)-2-(4-morpholin-4-yl-phenylamino)-pyrido[2,3-d]pyrimidine-7-carbonitrile; compound with trifluoro-acetic acid] was run?
**A.** 6.5 nM

**Q.** And the IC50 (Lck (p56^lck, active))?
**A.** 20.1 nM

**Q.** For `O=C(N[C@@H]1CCCNC1)c1nc2nc(Nc3ccc(F)cc3)ncc2cc1-c1ccccc1Br` [Example 3-34, (R)-6-(2-Bromo-phenyl)-2-(4-fluoro-phenylamino)-pyrido[2,3-d]pyrimidine-7-carboxylic acid piperidin-3-ylamide], which IC50 [1] is on record?
**A.** 97.9 nM

**Q.** What about the IC50 (Lck (p56^lck, active)) of the same compound?
**A.** 127 nM

**Q.** How did the IC50 [1] turn out when `CS(=O)(=O)NCCNC(=O)c1nc2nc(Nc3ccc(N4CCOCC4)cc3)ncc2cc1-c1ccccc1Br` [Example 7-15, 6-(2-bromo-phenyl)-2-(4-morpholin-4-yl-phenylamino)-pyrido[2,3-d]pyrimidine-7-carboxylic acid (2-methanesulfonylamino-ethyl)-amide] was run?
**A.** 0.4 nM

**Q.** What about the IC50 (Lck (p56^lck, active)) of the same compound?
**A.** 11.4 nM

**Q.** For `CCN(CC)CCOc1ccc(Nc2ncc3cc(-c4ccccc4Br)c(C#N)nc3n2)cc1` [Example 4-2, 6-(2-Bromo-phenyl)-2-[4-(2-diethylamino-ethoxy)-phenylamino]-pyrido[2,3-d]pyrimidine-7-carbonitrile], which IC50 [1] is on record?
**A.** 1.8 nM

**Q.** What about the IC50 (Lck (p56^lck, active)) of the same compound?
**A.** 5.1 nM

**Q.** `CNC(=O)CNC(=O)c1nc2nc(Nc3ccc(F)cc3)ncc2cc1-c1ccccc1Br` [Example 3-24, 6-(2-Bromo-phenyl)-2-(4-fluoro-phenylamino)-pyrido[2,3-d]pyrimidine-7-carboxylic acid methylcarbamoylmethyl-amide] was tested. Which IC50 [1] did it give?
**A.** 130 nM

**Q.** What about the IC50 (Lck (p56^lck, active)) of the same compound?
**A.** 206 nM

**Q.** How did the IC50 [1] turn out when `CN(C)C(=O)CNC(=O)c1nc2nc(Nc3ccc(F)cc3)ncc2cc1-c1ccccc1Br` [Example 3-30, 6-(2-Bromo-phenyl)-2-(4-fluoro-phenylamino)-pyrido[2,3-d]pyrimidine-7-carboxylic acid dimethylcarbamoylmethyl-amide] was run?
**A.** 247 nM

**Q.** What about the IC50 (Lck (p56^lck, active)) of the same compound?
**A.** 151 nM

**Q.** How did the IC50 [1] turn out when `N#Cc1nc2nc(Nc3cccc(S(=O)(=O)CCO)c3)ncc2cc1-c1ccccc1Br` [Example 4-6, 6-(2-Bromo-phenyl)-2-[3-(2-hydroxy-ethanesulfonyl)-phenylamino]-pyrido[2,3-d]pyrimidine-7-carbonitrile] was run?
**A.** 16.2 nM

**Q.** What about the IC50 (Lck (p56^lck, active)) of the same compound?
**A.** 99.7 nM

**Q.** With `O=C(NC[C@H]1CCCN1)c1nc2nc(Nc3ccc(F)cc3)ncc2cc1-c1ccccc1Br` [Example 3-48, (R)-6-(2-Bromo-phenyl)-2-(4-fluoro-phenylamino)-pyrido[2,3-d]pyrimidine-7-carboxylic acid (pyrrolidin-2-ylmethyl)-amide] as the compound, how does the IC50 [1] read?
**A.** 2.1 nM

**Q.** What about the IC50 (Lck (p56^lck, active)) of the same compound?
**A.** 38.1 nM

**Q.** What does the source list for `CN(C)CCCNC(=O)c1nc2nc(Nc3ccc(F)cc3)ncc2cc1-c1ccccc1Br` [Example 3-14, 6-(2-Bromo-phenyl)-2-(4-fluoro-phenylamino)-pyrido[2,3-d]pyrimidine-7-carboxylic acid (3-dimethylamino-propyl)-amide]?
**A.** IC50 [1]: 21.7 nM; IC50 (Lck (p56^lck, active)): 233 nM

**Q.** For `CSc1cccc(Nc2ncc3cc(-c4ccccc4Br)c(C(=O)NCCN(C)C)nc3n2)c1` [Example 3-8, 6-(2-Bromo-phenyl)-2-(3-methylsulfanyl-phenylamino)-pyrido[2,3-d]pyrimidine-7-carboxylic acid (2-dimethylamino-ethyl)-amide], which IC50 [1] is on record?
**A.** 1.7 nM

**Q.** And the IC50 (Lck (p56^lck, active))?
**A.** 32.3 nM

**Q.** How did the IC50 [1] turn out when `CN1CCCC1CCNC(=O)c1nc2nc(Nc3ccc(F)cc3)ncc2cc1-c1ccccc1Br` (centres unmarked) [Example 3-33, 6-(2-Bromo-phenyl)-2-(4-fluoro-phenylamino)-pyrido[2,3-d]pyrimidine-7-carboxylic acid [2-(1-methyl-pyrrolidin-2-yl)-ethyl]-amide] was run?
**A.** 44.7 nM

**Q.** And the IC50 (Lck (p56^lck, active))?
**A.** 96.9 nM

**Q.** How did the IC50 [1] turn out when `O=C(NCCN1CCNC1=O)c1nc2nc(Nc3ccc(F)cc3)ncc2cc1-c1ccccc1Br` [Example 3-25, 6-(2-Bromo-phenyl)-2-(4-fluoro-phenylamino)-pyrido[2,3-d]pyrimidine-7-carboxylic acid[2-(2-oxo-imidazolidin-1-yl)-ethyl]-amide] was run?
**A.** 157 nM

**Q.** And the IC50 (Lck (p56^lck, active))?
**A.** 370 nM
